Data from patent US9938269B2, “Inhibitor compounds of phosphodiesterase type 10A” (ABBVIE INC., priority 2011, dated 2018).
Structures can show the parent of a compound that is named as a salt.

How the values were obtained:
[1] = Determination of the microsomal half-life, rat liver microsomes; conditions: rat, liver microsomes, pH 7.4
PDE10A (human) = molecular target: T1, PDE10A (human) (Homo sapiens, UniProt Q9Y233); assay: Measurement of PDE activity (HTRF cAMP kit), human PDE10A; format: biochemical; conditions: PDE enzymatic reaction, substrate 20 nM for PDE10, 60 minutes at 29 C
T1 construct: purchased BPS Bioscience
How it was run: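 HTRF detection of cAMP left after hydrolysis, expressed as percent of uninhibited control to derive IC50. Reaction: serially diluted inhibitor mixed with recombinant enzyme, started with 20 nM cAMP, 60 min at 29 °C in Tris-HCl pH 7.5 buffer containing MgCl2 and BSA.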

[2] = Determination of the microsomal half-life, human liver microsomes; conditions: for microsomal CLint at 0.5 μM: human, liver microsomes, pH 7.4; for Human mCl (mikrosomal clearance): human liver microsomes, 0.5 μM test substance, 0.25 mg microsomal protein, pH 7.4, 37° C., NADPH

T1 sequence (Q9Y233 whole entry): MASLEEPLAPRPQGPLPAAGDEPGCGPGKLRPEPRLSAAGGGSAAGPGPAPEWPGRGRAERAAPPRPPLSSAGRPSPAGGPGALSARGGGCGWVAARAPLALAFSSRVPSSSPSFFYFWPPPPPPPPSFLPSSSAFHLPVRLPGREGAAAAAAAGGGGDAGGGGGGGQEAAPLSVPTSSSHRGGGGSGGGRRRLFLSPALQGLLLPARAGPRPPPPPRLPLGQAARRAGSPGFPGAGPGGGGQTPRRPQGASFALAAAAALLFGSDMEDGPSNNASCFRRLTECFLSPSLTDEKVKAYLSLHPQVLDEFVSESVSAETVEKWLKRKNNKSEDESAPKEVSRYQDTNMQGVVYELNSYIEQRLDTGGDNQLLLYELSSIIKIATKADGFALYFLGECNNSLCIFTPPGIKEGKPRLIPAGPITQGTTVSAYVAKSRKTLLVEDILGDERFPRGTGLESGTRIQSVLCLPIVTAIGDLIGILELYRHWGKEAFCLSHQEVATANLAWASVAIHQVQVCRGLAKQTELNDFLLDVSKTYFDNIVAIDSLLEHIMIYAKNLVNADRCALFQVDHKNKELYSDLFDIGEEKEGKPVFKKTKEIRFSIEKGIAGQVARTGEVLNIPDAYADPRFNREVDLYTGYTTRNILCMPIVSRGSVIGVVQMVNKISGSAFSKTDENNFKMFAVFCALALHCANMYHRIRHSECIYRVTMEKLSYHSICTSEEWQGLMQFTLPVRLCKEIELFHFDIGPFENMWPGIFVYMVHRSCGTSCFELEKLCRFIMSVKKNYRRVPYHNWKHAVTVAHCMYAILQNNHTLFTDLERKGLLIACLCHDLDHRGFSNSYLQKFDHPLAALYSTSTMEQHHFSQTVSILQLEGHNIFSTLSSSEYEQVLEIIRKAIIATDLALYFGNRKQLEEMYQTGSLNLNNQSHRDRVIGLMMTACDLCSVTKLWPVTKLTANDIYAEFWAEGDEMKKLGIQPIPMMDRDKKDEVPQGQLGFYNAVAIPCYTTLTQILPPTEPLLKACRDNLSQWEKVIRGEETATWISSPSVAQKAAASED

| Structure (SMILES) | microsomal CLint at 0.5 μM [1] [µL/min/mg] | IC50 (PDE10A (human)) [nM] | microsomal CLint at 0.5 μM [2] [µL/min/mg] | Human mCl (mikrosomal clearance) [2] |
| --- | --- | --- | --- | --- |
| O=C1c2c(-c3ccncc3)ccnc2CN1CCc1nc2ccccc2o1 [compound 418, 6-[2-(1,3-Benzoxazol-2-yl)ethyl]-4-(4-pyridyl)-7H-pyrrolo[3,4-b]pyridin-5-one] | < 100 | 200 to 500 | < 100 |  |
| O=C(O)C(F)(F)F.O=C1c2c(-c3ccnc(F)c3)ccnc2CN1CCc1nc2ccccc2s1 [compound 421, 6-[2-(1,3-Benzothiazol-2-yl)ethyl]-4-(2-fluoro-4-pyridyl)-7H-pyrrolo[3,4-b]pyridin-5-one trifluoroacetate] | < 100 | < 100 |  | ◯ |
| O=C1c2c(-c3ccoc3)ccnc2CN1CCc1nc2ccccc2s1 [compound 422, 6-[2-(1,3-Benzothiazol-2-yl)ethyl]-4-(3-furyl)-7H-pyrrolo[3,4-b]pyridin-5-one trifluoroacetate] | 100 to 220 | < 100 | < 100 |  |
| O=C1c2c(N3CCC4(COC4)C3)ccnc2CN1CCc1nc2ccccc2s1 [compound 424, 6-[2-(1,3-Benzothiazol-2-yl)ethyl]-4-(2-oxa-7-azaspiro[3.4]octan-7-yl)-7H-pyrrolo[3,4-b]pyridin-5-one] | < 100 | < 100 | < 100 |  |
| O=C1c2c(N3CCOCC3)ccnc2CN1CCc1cn2ccsc2n1 [compound 425, 6-(2-Imidazo[2,1-b]thiazol-6-ylethyl)-4-morpholino-7H-pyrrolo[3,4-b]pyridin-5-one] | < 100 | < 100 |  | ◯ |
| O=C1c2c(N3CC4COCC4C3)ccnc2CN1CCc1nc2ccccc2s1 (stereo not drawn) [compound 426, 4-(1,3,3a,4,6,6a-Hexahydrofuro[3,4-c]pyrrol-5-yl)-6-[2-(1,3-benzothiazol-2-yl)ethyl]-7H-pyrrolo[3,4-b]pyridin-5-one] | < 100 | < 100 | 100 to 220 |  |
| O=C1c2cccc(-c3cc[nH]n3)c2CN1CCc1nc2ccccc2s1 [compound 428, 2-[2-(1,3-Benzothiazol-2-yl)ethyl]-4-(1H-pyrazol-3-yl)isoindolin-1-one] | > 220 | < 100 | 100 to 220 |  |
| O=C1c2c(-c3cc[nH]n3)ccnc2CN1CCc1nc2ccccc2s1 [compound 429, 6-[2-(1,3-Benzothiazol-2-yl)ethyl]-4-(1H-pyrazol-3-yl)-7H-pyrrolo[3,4-b]pyridin-5-one] | < 100 | < 100 | < 100 |  |
| O=C1c2c(-c3cccnc3)ccnc2CN1CCc1nc2ccccc2s1 [compound 430, 6-[2-(1,3-Benzothiazol-2-yl)ethyl]-4-(3-pyridyl)-7H-pyrrolo[3,4-b]pyridin-5-one trifluoroacetate] | < 100 | < 100 | < 100 |  |
| O=C1c2cccc(-c3ccncc3)c2CN1CCc1nc2ccccc2s1 [compound 431, 2-[2-(1,3-Benzothiazol-2-yl)ethyl]-4-(4-pyridyl)isoindolin-1-one] | > 220 | 100 to 200 | < 100 |  |
| Cn1nccc1-c1ccnc2c1C(=O)N(CCc1nc3ccccc3s1)C2 [compound 432, 6-[2-(1,3-Benzothiazol-2-yl)ethyl]-4-(2-methylpyrazol-3-yl)-7H-pyrrolo[3,4-b]pyridin-5-one trifluoroacetate] | < 100 | 100 to 200 | < 100 |  |
| O=C1c2c(-c3cscn3)ccnc2CN1CCc1nc2ccccc2s1 [compound 436, 6-[2-(1,3-Benzothiazol-2-yl)ethyl]-4-thiazol-4-yl-7H-pyrrolo[3,4-b]pyridin-5-one] | < 100 | 200 to 500 | < 100 |  |
